Positions count from the first letter of the chain named. One block for each molecule: values may come before it.
Key:
[1] = target: T1, AtGPRAT2 (Arabidopsis thaliana, UniProt Q9STG9); experiment: coupled glutamate dehydrogenase assay, NADH at […] nm, mixed inhibition model; type: biochemical
T1 construct: gene ASE2; residues 75-561 without predicted chloroplast transit peptide, C-terminal His tag (pET22b), E. coli BL21; propeptide autocatalytically removed, first visible residue Cys87 (87-546 visible); 4Fe-4S cluster; homo-tetramer in crystal
T1 sequence (Q9STG9 87-561): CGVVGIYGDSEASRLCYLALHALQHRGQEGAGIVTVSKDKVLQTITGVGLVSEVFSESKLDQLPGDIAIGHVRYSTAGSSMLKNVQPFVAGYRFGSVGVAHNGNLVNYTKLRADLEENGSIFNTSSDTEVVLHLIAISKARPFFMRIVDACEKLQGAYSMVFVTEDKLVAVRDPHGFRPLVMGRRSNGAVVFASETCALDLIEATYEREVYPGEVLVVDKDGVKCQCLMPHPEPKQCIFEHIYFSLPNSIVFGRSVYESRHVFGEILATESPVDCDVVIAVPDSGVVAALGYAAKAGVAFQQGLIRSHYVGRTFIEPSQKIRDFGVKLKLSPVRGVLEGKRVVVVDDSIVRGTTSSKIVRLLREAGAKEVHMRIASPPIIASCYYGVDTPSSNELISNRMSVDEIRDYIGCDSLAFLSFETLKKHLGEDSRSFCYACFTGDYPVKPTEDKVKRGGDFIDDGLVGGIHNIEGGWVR

[2] = target: T2, AtGPRAT2 (Arabidopsis thaliana, UniProt Q9STG9, R264K); experiment: isothermal titration calorimetry, single site model; type: binding; details: 20 mM HEPES pH 7.5, 200 mM NaCl, 25 °C; stated gain
T2 construct: gene ASE2; residues 75-561 without predicted chloroplast transit peptide, C-terminal His tag (pET22b), E. coli BL21; propeptide autocatalytically removed, first visible residue Cys87 (87-546 visible); 4Fe-4S cluster; homo-tetramer in crystal
T2 sequence (Q9STG9 87-561 R264K): T1 sequence (Q9STG9 87-561) with R178K

[3] = target: T1, AtGPRAT2; experiment: as above; type: binding
Description: isothermal titration calorimetry, single site model on AtGPRAT2 | isothermal titration calorimetry (ITC) assay with wildtype, R264K and Y329A mutants of AtGPRAT2

[4] = target: T3, AtGPRAT2 (Arabidopsis thaliana, UniProt Q9STG9, Y329A); experiment: as above; type: binding
T3 construct: gene ASE2; residues 75-561 without predicted chloroplast transit peptide, C-terminal His tag (pET22b), E. coli BL21; propeptide autocatalytically removed, first visible residue Cys87 (87-546 visible); 4Fe-4S cluster; homo-tetramer in crystal
T3 sequence (Q9STG9 87-561 Y329A): T1 sequence (Q9STG9 87-561) with Y243A

[5] = substrate: O=P(O)(O)OC[C@H]1O[C@H](OP(=O)(O)OP(=O)(O)O)[C@H](O)[C@@H]1O; experiment: purified protein; type: biochemical, Arabidopsis thaliana; details: 10 mM Gln, 37.5 mM NAD+, 110 mM potassium phosphate pH 8.0, no inhibitor
[6] = target: the molecule itself; experiment: crystal structure; sitting-drop vapor diffusion at 291 K; 0.1 M sodium citrate tribasic pH 5.6, 1.5 M ammonium phosphate monobasic, 0.1 M citric acid pH 3.4; space group P3121, two molecules in the asymmetric unit; tetramer assigned with the PISA server

Ki [1]: 5290 nM | Kd [3]: 165 ± 15.8 nM | Kd [4]: 1750 ± 38.4 nM
Molecule: CC(C)n1nc(CC(=O)O)nc1-c1ccc(Cl)cc1 [DAS734, [5-(4-chlorophenyl)-1-isopropyl-1H-[1,2,4]triazol-3-yl]-acetic acid]
binding abolished [2]: the R264K mutation abolished the binding of DAS734 to AtGPRAT2

B1: Arabidopsis thaliana chloroplastic glutamine phosphoribosylpyrophosphate amidotransferase 2, AtGPRAT2^75-561 (enzyme, UniProt Q9STG9 75-561, looked up)
chain: T1 sequence (Q9STG9 87-561)
notes: AtGPRAT2 (At4g34740), Arabidopsis thaliana, residues 75-561, without the predicted chloroplast transit peptide; Each protomer carries a 4Fe-4S cofactor; also called GPRATase
Km [5]: 350 µM | stoichiometry N [6]: 4

— paper PMC7056826, “Crystal Structure of the Chloroplastic Glutamine Phosphoribosylpyrophosphate Amidotransferase GPRAT2 From Arabidopsis thaliana” (Frontiers in Plant Science, 2020)
